Entries after “also recorded” stand apart in the source; their conditions may differ.
How the values were obtained:
histone H3 (Acetyl-H3) = test: histone H3 acetylation, Western blot, RA-FLS; assay type: cell-based; settings: 1 μM MPT0G009 or 30 μM SAHA; 6, 12, 24 h; starting at 12 h
Description: Then cells were harvested and cell lysates were prepared for Western blot analysis of the indicated proteins. (FIG. 5C) RA-FLS were incubated for 1 h with or without the proteasome inhibitor, MG132 (1 μM). […] Results shown are representative of three independent experiments.
This was a proteasome-dependent effect because it was reduced by pretreatment with the proteasome inhibitor, MG132 (1 μM; FIG. 5c).

HDAC8 = target: T1, HDAC8 (Homo sapiens, UniProt Q9BY41); test: recombinant HDAC isoform inhibition (kit); assay type: biochemical; settings: mean ± SEM, three replicates, read-out: IC50 DHAC8
T1 construct: purchased
Text: (§1) Using kits that contained different recombinant HDAC isoforms, we evaluated the ability of MPT0G009 to inhibit HDAC-mediated deacetylation of lysine residues on the substrates that were provided.

HDAC3 = target: T2, HDAC3 (Homo sapiens, UniProt O15379); test: recombinant HDAC isoform inhibition (kit); assay type: biochemical; settings: mean ± SEM, three replicates
T2 construct: purchased
Text: as §1

HDAC1 = target: T3, HDAC1 (Homo sapiens, UniProt Q13547); test: recombinant HDAC isoform inhibition (kit); assay type: biochemical; settings: mean ± SEM, three replicates
T3 construct: purchased
Text: as §1

HDAC2 = target: T4, HDAC2 (Homo sapiens, UniProt Q92769); test: recombinant HDAC isoform inhibition (kit); assay type: biochemical; settings: mean ± SEM, three replicates
T4 construct: purchased
Text: as §1

HDAC6 = target: T5, HDAC6 (Homo sapiens, UniProt Q9UBN7); test: recombinant HDAC isoform inhibition (kit); assay type: biochemical; settings: mean ± SEM, three replicates
T5 construct: purchased
Text: as §1

IL-6 = test: IL-1β-induced IL-6 production by RA-FLS; assay type: cell-based; settings: MPT0G009 0.1, 1, 10 μM; SAHA 0.3, 3, 30 μM; IL-1β 10 ng/mL 24 h
Description: (§2) (FIG. 1A) Structure of MPT0G009. […] Results in (FIGS. 1B-E) and (FIG. 1G) are means±SEM's for three independent experiments, *p<0.05 and **p<0.01 compared with no added inhibitor.
(§3) Furthermore, the anti-inflammatory effects of MPT0G009 was evaluated. […] These supernatants were then assayed for PGE2, NO, and IL-6.

[1] = tested on: carrageenan-induced hind paw edema; test: carrageenan-induced hind paw edema
Description: A 0.5% (w/v) suspension of carrageenan in normal saline was administered to male Wistar rats (7-weeks) by intradermal injection into the base of the right hind paw. […] A positive control group was included in which rats were pretreated with 5 mg/kg Indomethacin. […] The results are expressed as the mean±SEM, with n=5. *p<0.05 compared to the control group; #p<0.05 for the comparison of the indicated groups.
Animals were divided into four groups (n=5). 0.5% (w/v) suspension of carrageenan in normal saline was administered to male Wistar rats (7-weeks) by intradermal injection into the base of the right hind paw. […] A positive control group was included in which rats were pretreated with 5 mg/kg Indomethacin. Three hours after carrageenan administration, the thickness and volume of the right hind paw were measured by digital caliper and digital plethysmometer (Diagnostic & Research Instruments CO., Ltd, Taipei, Taiwan), respectively.

prostaglandin E2 (PGE2) = test: LPS-induced PGE2 production by RA-FLS; assay type: cell-based; settings: MPT0G009 0.1, 1, 10 μM; SAHA 0.3, 3, 30 μM; LPS 25 ng/mL 24 h
Description: as §2, §3

[2] = in vivo rat pharmacokinetic profiling; design: species or system rats
Text: The pharmokinetic parameters of MPT0G009 in rats after single-dose intravenous (i.v.) and oral administration are summarized in Table 2. […].

interleukin-6 (IL-6) = test: LPS-induced IL-6 production in RAW 264.7 macrophages; settings: Mus musculus, RAW264.7, read-out: IC50 IL-6
NFATc1 = test: RANKL-induced NFATc1 luciferase reporter in RAW264.7 cells; assay type: cell-based, Mouse; settings: 5 nM MPT0G009; RANKL 24 h
Description: Cells were then tartrate resistant acid phosphatase (TRAP) stained, and the numbers of TRAP-positive multinuclear cells were counted. […] Images are at ×100 magnification, and the arrows indicate differentiated osteoclasts. (FIG. 6C) RAW264.7 cells were treated as in (FIG. 6B), then incubated with a fluorescein isothiocyanate (FITC)-conjugated anti-CD51/61 antibody and analyzed by flow cytometry. (FIGS. 6D and 6E) RAW264.7 cells (1×10^5) were transfected with 1 μg of pGL4.32[luc2P/NF-κB-RE/Hygro] (FIG. 6D) or pGL4.30[luc2P/NFAT-RE/Hygro] (FIG. 6E) for 24 h and then incubated for 30 min with or without MPT0G009 (5 nM). Then RANKL (50 ng/mL) was added and incubation was continued for an additional 24 h, after which luciferase activity was determined. Results in (FIGS. 6A, 6D, and 6E) are the means±SEM's for three independent experiments. **p<0.01 compared with the indicated controls.
We also assessed the effect of MTPOG009 on the DNA-binding activity of NF-kB and NFATc1, two pivotal transcriptional factors involved in RANKL-induced pathways for promoting osteoclast differentiation. When RAW264.7 cells that had been transiently transfected with reporter plasmids were treated with 5 nM MPT0G009 for 30 min before and during 24-h stimulation with RANKL, MPT0G009 inhibited RANKL-induced NF-kB (FIG. 6d) and NFATc1 (FIG. 6e) luciferase activity.

[3] = maximum tolerated dose (MTD); assay type: in vivo; settings: for Lethality / Change of body weight Day 7 / Change of body weight Day 14 / Change of body weight Day 21: qd × 7; for Change of body weight Day 7 / Change of body weight Day 14 / Change of body weight Day 21: mean ± SEM

T1 sequence (Q9BY41 whole entry, canonical isoform): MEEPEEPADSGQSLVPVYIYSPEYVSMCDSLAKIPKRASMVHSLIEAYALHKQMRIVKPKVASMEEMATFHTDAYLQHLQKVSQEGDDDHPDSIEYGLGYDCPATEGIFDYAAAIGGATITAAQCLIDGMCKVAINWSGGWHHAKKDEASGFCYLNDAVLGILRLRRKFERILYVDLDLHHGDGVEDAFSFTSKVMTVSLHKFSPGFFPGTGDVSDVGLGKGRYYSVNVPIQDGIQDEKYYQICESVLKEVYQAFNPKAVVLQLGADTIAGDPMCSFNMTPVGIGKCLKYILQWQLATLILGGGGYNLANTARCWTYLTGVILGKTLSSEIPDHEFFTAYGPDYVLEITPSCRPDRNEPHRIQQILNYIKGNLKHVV
T3 sequence (Q13547 whole entry, species assumed, canonical isoform): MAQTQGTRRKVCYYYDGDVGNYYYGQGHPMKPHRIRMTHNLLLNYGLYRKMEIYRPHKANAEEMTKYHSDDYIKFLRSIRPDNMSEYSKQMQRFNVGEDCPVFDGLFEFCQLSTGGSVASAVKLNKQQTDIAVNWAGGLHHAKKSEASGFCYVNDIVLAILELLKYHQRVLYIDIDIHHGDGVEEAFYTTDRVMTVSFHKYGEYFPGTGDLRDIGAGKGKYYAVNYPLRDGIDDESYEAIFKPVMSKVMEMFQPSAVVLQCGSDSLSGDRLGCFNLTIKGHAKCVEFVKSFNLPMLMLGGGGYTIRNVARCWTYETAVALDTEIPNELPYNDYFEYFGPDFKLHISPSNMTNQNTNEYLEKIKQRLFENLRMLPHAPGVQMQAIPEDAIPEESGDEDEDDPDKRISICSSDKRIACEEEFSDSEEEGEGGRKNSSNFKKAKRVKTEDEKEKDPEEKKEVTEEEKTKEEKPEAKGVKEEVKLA
T4 sequence (Q92769 whole entry, species assumed, canonical isoform): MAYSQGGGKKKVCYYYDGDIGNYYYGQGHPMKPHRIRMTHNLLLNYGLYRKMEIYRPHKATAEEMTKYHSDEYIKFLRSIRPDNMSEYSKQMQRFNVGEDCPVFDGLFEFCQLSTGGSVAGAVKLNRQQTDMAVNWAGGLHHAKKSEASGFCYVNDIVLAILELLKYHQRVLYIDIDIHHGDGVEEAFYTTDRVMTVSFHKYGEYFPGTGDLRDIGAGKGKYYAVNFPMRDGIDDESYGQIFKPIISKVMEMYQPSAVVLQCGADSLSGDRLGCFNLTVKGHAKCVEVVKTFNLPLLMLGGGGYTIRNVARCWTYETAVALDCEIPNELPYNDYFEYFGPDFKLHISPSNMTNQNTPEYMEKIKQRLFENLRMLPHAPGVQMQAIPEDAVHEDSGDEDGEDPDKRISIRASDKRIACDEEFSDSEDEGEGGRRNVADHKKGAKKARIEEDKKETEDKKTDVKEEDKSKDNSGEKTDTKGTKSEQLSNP
T5 sequence (Q9UBN7 whole entry, species assumed, canonical isoform): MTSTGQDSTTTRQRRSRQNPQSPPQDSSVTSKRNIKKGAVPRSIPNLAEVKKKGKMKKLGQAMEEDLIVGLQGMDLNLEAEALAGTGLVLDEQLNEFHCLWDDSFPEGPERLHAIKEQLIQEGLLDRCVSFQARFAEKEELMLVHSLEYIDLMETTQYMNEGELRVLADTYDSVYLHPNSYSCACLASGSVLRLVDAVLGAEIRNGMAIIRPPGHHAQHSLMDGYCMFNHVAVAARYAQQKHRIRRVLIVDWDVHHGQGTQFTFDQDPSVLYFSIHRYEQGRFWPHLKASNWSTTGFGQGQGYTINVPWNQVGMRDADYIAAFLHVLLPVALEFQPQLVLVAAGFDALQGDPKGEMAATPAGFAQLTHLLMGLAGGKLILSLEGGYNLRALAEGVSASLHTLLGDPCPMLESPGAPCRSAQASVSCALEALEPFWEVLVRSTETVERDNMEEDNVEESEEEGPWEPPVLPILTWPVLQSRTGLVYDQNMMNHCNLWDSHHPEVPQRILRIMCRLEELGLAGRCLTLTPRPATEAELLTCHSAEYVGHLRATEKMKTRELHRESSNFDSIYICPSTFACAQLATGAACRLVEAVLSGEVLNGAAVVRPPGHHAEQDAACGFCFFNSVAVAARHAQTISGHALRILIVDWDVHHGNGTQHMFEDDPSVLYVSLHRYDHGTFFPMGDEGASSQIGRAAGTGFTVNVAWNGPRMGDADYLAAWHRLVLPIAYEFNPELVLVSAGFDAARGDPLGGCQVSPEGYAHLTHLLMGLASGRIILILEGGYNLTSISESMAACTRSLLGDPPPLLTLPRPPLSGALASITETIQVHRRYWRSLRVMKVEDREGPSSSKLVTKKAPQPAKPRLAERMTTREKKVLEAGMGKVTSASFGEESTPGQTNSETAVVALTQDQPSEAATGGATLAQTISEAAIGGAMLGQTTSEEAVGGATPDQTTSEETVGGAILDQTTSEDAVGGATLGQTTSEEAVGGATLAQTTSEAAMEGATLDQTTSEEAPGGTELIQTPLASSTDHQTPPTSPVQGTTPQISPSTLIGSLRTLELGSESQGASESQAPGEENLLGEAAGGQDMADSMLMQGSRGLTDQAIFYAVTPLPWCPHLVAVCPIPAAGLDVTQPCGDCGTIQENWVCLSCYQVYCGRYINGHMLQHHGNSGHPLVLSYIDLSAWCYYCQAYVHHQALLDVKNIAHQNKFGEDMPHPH
T2 sequence (O15379 whole entry, species assumed, canonical isoform): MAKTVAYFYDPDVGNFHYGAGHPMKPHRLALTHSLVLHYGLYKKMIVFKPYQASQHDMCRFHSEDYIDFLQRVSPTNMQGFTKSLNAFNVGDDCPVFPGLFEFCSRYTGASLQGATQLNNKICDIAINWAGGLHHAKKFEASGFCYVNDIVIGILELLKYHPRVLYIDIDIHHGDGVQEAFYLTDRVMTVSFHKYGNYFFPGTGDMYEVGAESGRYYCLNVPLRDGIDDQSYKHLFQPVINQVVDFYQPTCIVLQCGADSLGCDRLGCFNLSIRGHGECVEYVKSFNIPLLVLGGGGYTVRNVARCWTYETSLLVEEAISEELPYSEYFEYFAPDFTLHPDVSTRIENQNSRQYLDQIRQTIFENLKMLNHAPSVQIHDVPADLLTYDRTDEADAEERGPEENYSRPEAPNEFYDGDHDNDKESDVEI
T2 sequence (Q9Y618 395-489 partner limits assumed, species assumed): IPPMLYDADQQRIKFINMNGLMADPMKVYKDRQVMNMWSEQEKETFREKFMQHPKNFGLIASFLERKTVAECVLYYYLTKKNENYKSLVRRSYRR

Q: Which “acetylation of histone H3 in RA-FLS” value (histone H3 (Acetyl-H3)) does the source give for `COc1ccc(S(=O)(=O)N2CCc3cc(C=CC(=O)NO)ccc32)cc1` [Compound 9, 3-[1-(4-methoxybenzenesulfonyl)-2,3-dihydro-1H-indol-5-yl]-N-Hydroxyacrylamide] here?
A: significant hyperacetylation of histone H3

Q: What about the IC50 (HDAC8) of the same compound?
A: 22.5 nM

Q: What about the IC50 (HDAC3) of the same compound?
A: 1.91 nM

Q: And the IC50 (HDAC1)?
A: 4.62 ± 0.81 nM

Q: And the IC50 (HDAC2)?
A: 5.16 ± 0.76 nM

Q: What about the IC50 (HDAC6) of the same compound?
A: 8.43 ± 0.72 nM

Q: What about the “IL-6 production by RA-FLS” value (IL-6) of the same compound?
A: inhibited

Q: And the “paw thickness reduced compared to control” value ([1]; compound 9 25 mg/kg oral, 3 h after carrageenan)?
A: 21.3%

Q: And the “carrageenan-induced hind paw edema” value ([1]; oral, 1 h before carrageenan, compound 9 25 mg/kg, SAHA 200 mg/kg, Indomethacin 5 mg/kg, measured 3 h after)?
A: significantly inhibited; also recorded: suppress

Q: What about the “PGE2 production by RA-FLS” value (prostaglandin E2 (PGE2)) of the same compound?
A: inhibited

Q: And the T1/2 ([2]; rat, in vivo, iv, 2 mg/kg)?
A: 6.74 h

Q: And the Vd ([2]; rat, in vivo, iv, 2 mg/kg)?
A: 25.21 L/kg

Q: And the T1/2 ([2]; rat, in vivo, po, 20 mg/kg)?
A: 9.53 h

Q: What about the F ([2]; rats, po 20 mg/kg, MPT0G009) of the same compound?
A: 13.0%

Q: And the IC50 (interleukin-6 (IL-6))?
A: 10 nM

Q: What about the “RANKL-induced NFATc1 luciferase activity” value (NFATc1) of the same compound?
A: inhibited

Q: And the Lethality ([3]; 250 mg/kg po)?
A: 0%

Q: And the “Change of body weight Day 7” value ([3]; 250 mg/kg po)?
A: +8.7 ± 0.5%

Q: And the “Change of body weight Day 14” value ([3]; 250 mg/kg po)?
A: +17.0 ± 0.4%

Q: And the “Change of body weight Day 21” value ([3]; 250 mg/kg po)?
A: +22.6 ± 0.6%

Q: And the Lethality ([3]; 500 mg/kg po)?
A: 0%

Q: And the “Change of body weight Day 7” value ([3]; 500 mg/kg po)?
A: +1.6 ± 0.3%

Q: What about the “Change of body weight Day 14” value ([3]; 500 mg/kg po) of the same compound?
A: +16.5 ± 0.6%

Q: And the “Change of body weight Day 21” value ([3]; 500 mg/kg po)?
A: +24.0 ± 0.9%

Q: What about the Lethality ([3]; 1000 mg/kg po) of the same compound?
A: 0%

Q: What about the “Change of body weight Day 7” value ([3]; 1000 mg/kg po) of the same compound?
A: +4.4 ± 0.6%

Q: What about the “Change of body weight Day 14” value ([3]; 1000 mg/kg po) of the same compound?
A: +12.0 ± 0.7%

Q: And the “Change of body weight Day 21” value ([3]; 1000 mg/kg po)?
A: +15.3 ± 0.8%

Q: And the adverse effects ([3]; mice, dosage of up to 1000 mg/kg/day, within three weeks)?
A: No significant adverse effects

Reference: patent publication US20150368195A1, “INDOLINE COMPOUNDS FOR TREATMENT AND/OR PREVENTION OF INFLAMMATION DISEASES” (Taipei Medical University, priority 2014, published 2015)
